system: DLD-1, human colorectal adenocarcinoma cell line; assay: Cytotoxicity assay (Hoechst DNA assay), DLD-1; format: cell-based; conditions: Homo sapiens, DLD-1; isolated compounds; concentration inhibiting 50% cell growth; 48 h; mean of three independent assays
Description: (§1) P. banksiana buds were extracted successively with hexanes, CH2Cl2 and MeOH. After solvent evaporation, each extract was investigated for in vitro cytotoxic and antibacterial activities. Cytotoxic activity evaluations were carried out on lung cancer (A549), colorectal cancer (DLD-1) and normal skin fibroblasts (WS1) human cell lines using the Hoechst assay. Antibacterial activity was evaluated against Escherichia coli and Staphylococcus aureus. […] Therefore, following studies were focused on the CH2Cl2 extract that was further separated over column chromatography on silica gel to afford eleven fractions (A–K). All fractions activities were tested against both cancer cell lines and bacterial strains. […] In a next step, fractions F, G, H and K were separated by a combination of chromatographic procedures to afford the three new compounds 1–3 together with 12 known compounds. The structures of the new compounds were determined as follows and the known products were identified by comparison of their spectroscopic data with values found in the literature.
(§2) Lung carcinoma (A549), colorectal adenocarcinoma (DLD-1) and normal skin fibroblast (WS1) human cell lines were obtained from the American Type Culture Collection (ATCC). All cell lines were cultured in minimum essential medium containing Earle’s salts and L-glutamine (Mediatech Cellgro, VA, USA), to which were added 10% fetal bovine serum (Hyclone), vitamins (1X), penicillin (100 I.U./mL) and streptomycin (100 µg/mL), essential amino acids (1X) and sodium pyruvate (1X) (Mediatech Cellgro, VA). Cells were kept at 37 °C in a humidified environment containing 5% CO2. Antibacterial activity was tested on Escherichia coli ATCC 25922 and Staphylococcus aureus ATCC 25923E.
(§3) Exponentially growing cells were plated on 96-well microplates (BD Falcon) at a density of 5 × 10^3 cells per well in 100 μL of culture medium (DMEM with 10% SVF) and were allowed to adhere for 24 h before treatment. Increasing concentrations of each compound in MeOH or DMSO were then added (100 μL per well) and cells were incubated for 48 h. The final concentration of MeOH or DMSO in the culture medium was maintained at 0.25% (v/v) to avoid solvent toxicity. Microplates were then emptied and stored at −80 °C for 24 h. In a next step, 100 μL of SDS (0.01%) were added and the microplates were incubated at room temperature during 3 h before being put back to the cold. After 24 h, cells were prepared for cellular DNA assay with 100 μL of Hoechst dye 33342. Measurements were performed on the same labsystems at 365 and 460 nm wavelengths. Survival percentage was defined as the fluorescene in experimental wells compared to the control wells after subtraction of the blank values. Etoposide was used as positive control. Each experiment was carried out two times in triplicata. IC50 results were expressed as averaged values and the corresponding standard deviations were computed.

First: CC(C)c1ccc2c(c1)[C@H](O)CC1[C@](C)(O)CCC[C@]21C (stereo partly drawn) [Compound 8, 18-nor-abieta-8,11,13-triene-4,7α-diol]
Second: CC(C)c1ccc2c(c1)[C@@H](O)CC1[C@](C)(O)CCC[C@]21C (stereo partly drawn) [Compound 9, 18-nor-abieta-8,11,13-triene-4,7β-diol]
The IC50 of the first is lower: 91 ± 9 µM for the first, over 100 µM for the second.

`CC(C)c1ccc2c(c1)[C@H](O)CC1[C@](C)(C(=O)O)CCC[C@]21C` (stereo partly drawn) [Compound 10, 7α-hydroxydehydroabietic acid] and `CC(C)c1ccc2c(c1)[C@@H](O)CC1[C@](C)(C(=O)O)CCC[C@]21C` (stereo partly drawn) [Compound 11, 7β-hydroxydehydroabietic acid] cannot be ordered by IC50: over 100 µM for the first, over 100 µM for the second.

Going from `CC(C)c1ccc2c(c1)C(=O)C[C@H]1[C@](C)(CO)CCC[C@]21C` [Compound 12, 7-oxodehydroabietinol] to `CC(C)(O)c1ccc2c(c1)C(=O)CC1[C@](C)(CO)CCC[C@]21C` (some centres unmarked) [Compound 14, 15,18-dihydroxyabieta-8,11,13-trien-7-one], the IC50 rises from 47 ± 9 µM to over 100 µM.

`CC(C)(O)c1ccc2c(c1)C(=O)C[C@H]1[C@](C)(O)CCC[C@]21C` [Compound 13, 18-nor-4,15-dihydroxyabieta-8,11,13-trien-7-one] and `CC(C)(O)c1ccc2c(c1)C(=O)CC1[C@](C)(C(=O)O)CCC[C@]21C` (some centres unmarked) [Compound 15, 15-hydroxy-7-oxo-abieta-8,11,13-trien-18-oic acid] cannot be ordered by IC50: over 100 µM for the first, over 100 µM for the second.

same assay, conditions: isolated compounds; concentration inhibiting 50% cell growth; 48 h; mean of three independent assays

In the case of `CC(C)(O)c1ccc2c(c1)C(=O)C[C@H]1[C@](C)(O)CCC[C@]21C` [Compound 13, 18-nor-4,15-dihydroxyabieta-8,11,13-trien-7-one], the “IC50 DLD-1” value is reported as “not to DLD-1”.

system: Staphylococcus aureus ATCC 25923; assay: Antibacterial microdilution assay (resazurin), S. aureus; format: cell-based; conditions: ATCC25923, extracts and fractions, 6 h at 37 °C
Description: as §2
(§4) Antibacterial activity was evaluated using the microdilution method described by Banfi et al. with some modifications. Exponentially growing bacteria were plated in 96-well flat bottom microplates (BD Flacon) at a density of 5 × 10^3 gram-negative E. coli (ATCC 25922) or 40 × 10^3 gram-positive S. aureus (ATCC 25923) per well in 100 μL nutrient broth (Difco). The concentration of ethanol in the culture medium was maintained at 0.25% (v/v) to avoid solvent toxicity. Thereafter, 50 μL of 4% resazurin was added to each well and the microplates were incubated for 6 h at 37 °C. Fluorescence was measured after 6 h with an automated 96-well Fluoroskan Ascent Fl™ plate reader (Labsystems) using 530 and 590 nm excitation and emission wavelengths.

For `O=C(N[C@H](CO)[C@H](O)c1ccc([N+](=O)[O-])cc1)C(Cl)Cl` [Chloramphenicol, reference compound], the IC50 was over 1.6 µg/mL.

same assay, conditions: ATCC25923, isolated compounds, 6 h at 37 °C

`O=C(N[C@H](CO)[C@H](O)c1ccc([N+](=O)[O-])cc1)C(Cl)Cl` [Chloramphenicol, reference compound] and `CC(C)c1ccc2c(c1)[C@H](O)CC1[C@](C)(C(=O)O)CCC[C@]21C` (stereo partly drawn) [Compound 10, 7α-hydroxydehydroabietic acid] cannot be ordered by IC50: over 5 µM for the first, over 100 µM for the second.

`CC(C)c1ccc2c(c1)[C@H](O)CC1[C@](C)(O)CCC[C@]21C` (stereo partly drawn) [Compound 8, 18-nor-abieta-8,11,13-triene-4,7α-diol] and `CC(C)c1ccc2c(c1)[C@@H](O)CC1[C@](C)(O)CCC[C@]21C` (stereo partly drawn) [Compound 9, 18-nor-abieta-8,11,13-triene-4,7β-diol] cannot be ordered by IC50: over 100 µM for the first, over 100 µM for the second.

`CC(C)c1ccc2c(c1)[C@@H](O)CC1[C@](C)(C(=O)O)CCC[C@]21C` (stereo partly drawn) [Compound 11, 7β-hydroxydehydroabietic acid] and `CC(C)c1ccc2c(c1)C(=O)C[C@H]1[C@](C)(CO)CCC[C@]21C` [Compound 12, 7-oxodehydroabietinol] cannot be ordered by IC50: over 100 µM for the first, over 100 µM for the second.

`CC(C)(O)c1ccc2c(c1)C(=O)C[C@H]1[C@](C)(O)CCC[C@]21C` [Compound 13, 18-nor-4,15-dihydroxyabieta-8,11,13-trien-7-one] and `CC(C)(O)c1ccc2c(c1)C(=O)CC1[C@](C)(CO)CCC[C@]21C` (some centres unmarked) [Compound 14, 15,18-dihydroxyabieta-8,11,13-trien-7-one] cannot be ordered by IC50: over 100 µM for the first, over 100 µM for the second.

Work on `CC(C)(O)c1ccc2c(c1)C(=O)CC1[C@](C)(C(=O)O)CCC[C@]21C` (some centres unmarked) [Compound 15, 15-hydroxy-7-oxo-abieta-8,11,13-trien-18-oic acid] yielded an IC50 of over 100 µM.

system: A549, human lung carcinoma cell line; assay: Cytotoxicity assay (Hoechst DNA assay), A549; format: cell-based; conditions: Homo sapiens, A549; isolated compounds; concentration inhibiting 50% cell growth; 48 h; mean of three independent assays
Description: as §1, §2, §3

First: CC(C)c1ccc2c(c1)[C@H](O)CC1[C@](C)(O)CCC[C@]21C (stereo partly drawn) [Compound 8, 18-nor-abieta-8,11,13-triene-4,7α-diol]
Second: CC(C)c1ccc2c(c1)[C@@H](O)CC1[C@](C)(O)CCC[C@]21C (stereo partly drawn) [Compound 9, 18-nor-abieta-8,11,13-triene-4,7β-diol]
The IC50 of the first is lower: 63 ± 7 µM for the first, over 100 µM for the second.

`CC(C)c1ccc2c(c1)[C@H](O)CC1[C@](C)(C(=O)O)CCC[C@]21C` (stereo partly drawn) [Compound 10, 7α-hydroxydehydroabietic acid] and `CC(C)c1ccc2c(c1)[C@@H](O)CC1[C@](C)(C(=O)O)CCC[C@]21C` (stereo partly drawn) [Compound 11, 7β-hydroxydehydroabietic acid] cannot be ordered by IC50: over 100 µM for the first, over 100 µM for the second.

Compared with `CC(C)c1ccc2c(c1)C(=O)C[C@H]1[C@](C)(CO)CCC[C@]21C` [Compound 12, 7-oxodehydroabietinol], `CC(C)(O)c1ccc2c(c1)C(=O)CC1[C@](C)(CO)CCC[C@]21C` (some centres unmarked) [Compound 14, 15,18-dihydroxyabieta-8,11,13-trien-7-one] is higher in IC50: 34 ± 4 µM for the first, over 100 µM for the second. The first is the more potent here.

Going from `CC(C)(O)c1ccc2c(c1)C(=O)C[C@H]1[C@](C)(O)CCC[C@]21C` [Compound 13, 18-nor-4,15-dihydroxyabieta-8,11,13-trien-7-one] to `CC(C)(O)c1ccc2c(c1)C(=O)CC1[C@](C)(C(=O)O)CCC[C@]21C` (some centres unmarked) [Compound 15, 15-hydroxy-7-oxo-abieta-8,11,13-trien-18-oic acid], the IC50 rises from 46 ± 3 µM to over 100 µM.

same assay, conditions: isolated compounds

With `CC(C)c1ccc2c(c1)C(=O)C[C@H]1[C@](C)(CO)CCC[C@]21C` [Compound 12, 7-oxodehydroabietinol] the “cytotoxicity against lung carcinoma A549 (in words)” value was “moderate cytotoxicity”.
In the case of `CC(C)(O)c1ccc2c(c1)C(=O)C[C@H]1[C@](C)(O)CCC[C@]21C` [Compound 13, 18-nor-4,15-dihydroxyabieta-8,11,13-trien-7-one], the “cytotoxicity against lung carcinoma A549 (in words)” value is reported as “moderate cytotoxicity”.

system: WS1, human normal skin fibroblasts; assay: Cytotoxicity assay (Hoechst DNA assay), WS1; format: cell-based; conditions: Skin fibroblast, isolated compounds, concentration inhibiting 50% cell growth, 48 h, mean of three independent assays
Description: as §1, §2
as §3, with “Each experiment was carried out two times in triplicata.” left out

`CC(C)c1ccc2c(c1)[C@H](O)CC1[C@](C)(O)CCC[C@]21C` (stereo partly drawn) [Compound 8, 18-nor-abieta-8,11,13-triene-4,7α-diol] and `CC(C)c1ccc2c(c1)[C@@H](O)CC1[C@](C)(O)CCC[C@]21C` (stereo partly drawn) [Compound 9, 18-nor-abieta-8,11,13-triene-4,7β-diol] cannot be ordered by IC50: over 100 µM for the first, over 100 µM for the second.

`CC(C)c1ccc2c(c1)[C@H](O)CC1[C@](C)(C(=O)O)CCC[C@]21C` (stereo partly drawn) [Compound 10, 7α-hydroxydehydroabietic acid] and `CC(C)c1ccc2c(c1)[C@@H](O)CC1[C@](C)(C(=O)O)CCC[C@]21C` (stereo partly drawn) [Compound 11, 7β-hydroxydehydroabietic acid] cannot be ordered by IC50: over 100 µM for the first, over 100 µM for the second.

`CC(C)c1ccc2c(c1)C(=O)C[C@H]1[C@](C)(CO)CCC[C@]21C` [Compound 12, 7-oxodehydroabietinol] and `CC(C)(O)c1ccc2c(c1)C(=O)CC1[C@](C)(CO)CCC[C@]21C` (some centres unmarked) [Compound 14, 15,18-dihydroxyabieta-8,11,13-trien-7-one] cannot be ordered by IC50: over 100 µM for the first, over 100 µM for the second.

`CC(C)(O)c1ccc2c(c1)C(=O)C[C@H]1[C@](C)(O)CCC[C@]21C` [Compound 13, 18-nor-4,15-dihydroxyabieta-8,11,13-trien-7-one] and `CC(C)(O)c1ccc2c(c1)C(=O)CC1[C@](C)(C(=O)O)CCC[C@]21C` (some centres unmarked) [Compound 15, 15-hydroxy-7-oxo-abieta-8,11,13-trien-18-oic acid] cannot be ordered by IC50: over 100 µM for the first, over 100 µM for the second.

system: Escherichia coli ATCC 25922; assay: Antibacterial microdilution assay (resazurin), E. coli; format: cell-based; conditions: ATCC25922, extracts and fractions, 6 h at 37 °C
Description: as §2, §4

In the case of `O=C(N[C@H](CO)[C@H](O)c1ccc([N+](=O)[O-])cc1)C(Cl)Cl` [Chloramphenicol, reference compound], the IC50 is reported as 0.12 ± 0.02 µg/mL.

same assay, conditions: ATCC25922, isolated compounds, 6 h at 37 °C

Compared with `O=C(N[C@H](CO)[C@H](O)c1ccc([N+](=O)[O-])cc1)C(Cl)Cl` [Chloramphenicol, reference compound], `CC(C)c1ccc2c(c1)[C@H](O)CC1[C@](C)(C(=O)O)CCC[C@]21C` (stereo partly drawn) [Compound 10, 7α-hydroxydehydroabietic acid] is higher in IC50: 0.37 ± 0.06 µM for the first, over 100 µM for the second.

`CC(C)c1ccc2c(c1)[C@H](O)CC1[C@](C)(O)CCC[C@]21C` (stereo partly drawn) [Compound 8, 18-nor-abieta-8,11,13-triene-4,7α-diol] and `CC(C)c1ccc2c(c1)[C@@H](O)CC1[C@](C)(O)CCC[C@]21C` (stereo partly drawn) [Compound 9, 18-nor-abieta-8,11,13-triene-4,7β-diol] cannot be ordered by IC50: over 100 µM for the first, over 100 µM for the second.

`CC(C)c1ccc2c(c1)[C@@H](O)CC1[C@](C)(C(=O)O)CCC[C@]21C` (stereo partly drawn) [Compound 11, 7β-hydroxydehydroabietic acid] and `CC(C)c1ccc2c(c1)C(=O)C[C@H]1[C@](C)(CO)CCC[C@]21C` [Compound 12, 7-oxodehydroabietinol] cannot be ordered by IC50: over 100 µM for the first, over 100 µM for the second.

`CC(C)(O)c1ccc2c(c1)C(=O)C[C@H]1[C@](C)(O)CCC[C@]21C` [Compound 13, 18-nor-4,15-dihydroxyabieta-8,11,13-trien-7-one] and `CC(C)(O)c1ccc2c(c1)C(=O)CC1[C@](C)(CO)CCC[C@]21C` (some centres unmarked) [Compound 14, 15,18-dihydroxyabieta-8,11,13-trien-7-one] cannot be ordered by IC50: over 100 µM for the first, over 100 µM for the second.

`CC(C)(O)c1ccc2c(c1)C(=O)CC1[C@](C)(C(=O)O)CCC[C@]21C` (some centres unmarked) [Compound 15, 15-hydroxy-7-oxo-abieta-8,11,13-trien-18-oic acid] was tested, and the IC50 was over 100 µM.
